Measurements published in the supplement of paper PMC8253809.

Key:
SUDIPGIV [1] = diffuse intrinsic pontine glioma line; test: maximal growth inhibition (yFin) relative to DMSO / staurosporine; higher = more efficacious
Summary of the method: (§1)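 Patient-derived pHGG/DIPG cell lines and astrocyte controls were plated in 384-well plates coated with 1% Geltrex and dosed by pin tool with a 10-point threefold dilution series (mean top concentration 35 μM), in triplicate. Cells were exposed for 7 days (3 days for iAstro) at 37 °C and 5% CO2. CellTiter-Glo luminescence was log2-transformed, normalised per plate to % activity between negative (solvent) and positive control wells, and pooled. EC50 and maximal response (yFin) were taken from whichever three- or four-parameter log-logistic fit had the lowest AICc.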

DIPGX37 [2] = H3.3 K27M diffuse intrinsic pontine glioma line; test: as above
Summary of the method: as §1

DIPGX7 [3] = H3.3 K27M diffuse intrinsic pontine glioma line; test: as above
Summary of the method: as §1

HGGX39 [4] = paediatric high-grade glioma line; test: as above
Summary of the method: as §1

SUDIPGXXI [5] = diffuse intrinsic pontine glioma line; test: as above
Summary of the method: as §1

HGGX6 [6] = H3.3 G34R paediatric high-grade glioma line; test: as above
Summary of the method: as §1

DIPGX29 [7] = H3.3 K27M diffuse intrinsic pontine glioma line; test: as above
Summary of the method: as §1

HGGX42 [8] = H3.3 G34R paediatric high-grade glioma line; test: as above
Summary of the method: as §1

SUDIPGIV [9] = test: EC50 (inflection of fitted growth-inhibition curve) (log10 M)
Summary of the method: as §1

DIPGX37 [10] = test: as above
Summary of the method: as §1

DIPGX7 [11] = test: as above
Summary of the method: as §1

HGGX39 [12] = test: as above
Summary of the method: as §1

SUDIPGXXI [13] = test: as above
Summary of the method: as §1

HGGX6 [14] = test: as above
Summary of the method: as §1

DIPGX29 [15] = test: as above
Summary of the method: as §1

HGGX42 [16] = test: as above
Summary of the method: as §1

SUDIPGIV [17] = test: area under dose-response curve of % growth inhibition (log2 RLU vs DMSO / staurosporine), 1e-11 to 1e-4 M (% x log10 M); higher = more growth inhibition
Summary of the method: (§2)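 Patient-derived pHGG/DIPG cell lines and astrocyte controls were grown on 1% Geltrex-coated 384-well plates and exposed to a 10-point threefold dilution series (mean top concentration 35 μM), in triplicate. Exposure was 7 days (iAstro 3 days) at 37 °C, 5% CO2. CellTiter-Glo luminescence was log2-transformed and normalised per plate to % activity between solvent and positive controls. Area under the curve was taken by trapezoid rule from the fitted log-logistic curve, or from a smoothing spline when the sigmoid fit failed.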

SUDIPGVI = diffuse intrinsic pontine glioma line; test: as above
Summary of the method: as §2

SUDIPGXIII = diffuse intrinsic pontine glioma line; test: as above
Summary of the method: as §2

SUDIPGXIX [18] = diffuse intrinsic pontine glioma line; test: as above
Summary of the method: as §2

HGGX2 [19] = paediatric high-grade glioma line; test: as above
Summary of the method: as §2

DIPGX37 [20] = test: as above
Summary of the method: as §2

DIPGX7 [21] = test: as above
Summary of the method: as §2

DIPGX9 [22] = diffuse intrinsic pontine glioma line; test: as above
Summary of the method: as §2

HABS [23] = astrocyte control; test: as above
Summary of the method: as §2

SUDIPGXVII [24] = diffuse intrinsic pontine glioma line; test: as above
Summary of the method: as §2

HGGX39 [25] = test: as above
Summary of the method: as §2

SUDIPGXXI [26] = test: as above
Summary of the method: as §2

iAstro [27] = astrocyte control; test: as above
Summary of the method: as §2

HGGX6 [28] = test: as above
Summary of the method: as §2

DIPGX29 [29] = test: as above
Summary of the method: as §2

HGGX42 [30] = test: as above
Summary of the method: as §2

SUDIPGXIX [31] = test: maximal growth inhibition (yFin) relative to DMSO / staurosporine; higher = more efficacious
Summary of the method: as §1

HGGX2 [32] = test: as above
Summary of the method: as §1

DIPGX9 [33] = test: as above
Summary of the method: as §1

HABS [34] = test: as above
Summary of the method: as §1

SUDIPGXVII [35] = test: as above
Summary of the method: as §1

iAstro [36] = test: as above
Summary of the method: as §1

SUDIPGXIX [37] = test: EC50 (inflection of fitted growth-inhibition curve) (log10 M)
Summary of the method: as §1

HGGX2 [38] = test: as above
Summary of the method: as §1

DIPGX9 [39] = test: as above
Summary of the method: as §1

HABS [40] = test: as above
Summary of the method: as §1

SUDIPGXVII [41] = test: as above
Summary of the method: as §1

iAstro [42] = test: as above
Summary of the method: as §1

Structure (SMILES): CC(C(O)c1ccc(O)cc1)N1CCC(Cc2ccccc2)CC1 (centres undefined) [IFENPRODIL]
- maximal growth inhibition (SUDIPGIV [1]): 45.1%
- maximal growth inhibition (DIPGX37 [2]): 59.3%
- maximal growth inhibition (DIPGX7 [3]): 45.7%
- maximal growth inhibition (HGGX39 [4]): 36.6%
- maximal growth inhibition (SUDIPGXXI [5]): 75.3%
- maximal growth inhibition (HGGX6 [6]): 20.6%
- maximal growth inhibition (DIPGX29 [7]): 29.5%
- maximal growth inhibition (HGGX42 [8]): 61.8%
- EC50 (log10 M) (SUDIPGIV [9]): -4.66
- EC50 (log10 M) (DIPGX37 [10]): -4.82
- EC50 (log10 M) (DIPGX7 [11]): -4.83
- EC50 (log10 M) (HGGX39 [12]): -4.86
- EC50 (log10 M) (SUDIPGXXI [13]): -4.85
- EC50 (log10 M) (HGGX6 [14]): -4.95
- EC50 (log10 M) (DIPGX29 [15]): -4.85
- EC50 (log10 M) (HGGX42 [16]): -5.06
- area under dose-response curve (SUDIPGIV [17]): 29.8
- area under dose-response curve (SUDIPGVI): 18.5
- area under dose-response curve (SUDIPGXIII): 27.3
- area under dose-response curve (SUDIPGXIX [18]): 3.16
- area under dose-response curve (HGGX2 [19]): 8.88
- area under dose-response curve (DIPGX37 [20]): 48.4
- area under dose-response curve (DIPGX7 [21]): 57.3
- area under dose-response curve (DIPGX9 [22]): 18.8
- area under dose-response curve (HABS [23]): 0.152
- area under dose-response curve (SUDIPGXVII [24]): 17.3
- area under dose-response curve (HGGX39 [25]): 44.1
- area under dose-response curve (SUDIPGXXI [26]): 85.1
- area under dose-response curve (iAstro [27]): 13.3
- area under dose-response curve (HGGX6 [28]): 25.9
- area under dose-response curve (DIPGX29 [29]): 39.3
- area under dose-response curve (HGGX42 [30]): 66.8

Structure (SMILES): NC(=O)Nc1sc(-c2ccc(F)cc2)cc1C(N)=O [TPCA-1]
- maximal growth inhibition (SUDIPGIV [1]): 21.9%
- maximal growth inhibition (SUDIPGXIX [31]): 58.5%
- maximal growth inhibition (HGGX2 [32]): 36.3%
- maximal growth inhibition (DIPGX37 [2]): 38.5%
- maximal growth inhibition (DIPGX9 [33]): 36.9%
- maximal growth inhibition (HABS [34]): 33.8%
- maximal growth inhibition (SUDIPGXVII [35]): 20.7%
- maximal growth inhibition (HGGX39 [4]): 27.7%
- maximal growth inhibition (SUDIPGXXI [5]): 122%
- maximal growth inhibition (iAstro [36]): 24.4%
- maximal growth inhibition (HGGX6 [6]): 22.5%
- maximal growth inhibition (DIPGX29 [7]): 35.9%
- maximal growth inhibition (HGGX42 [8]): 24.8%
- EC50 (log10 M) (SUDIPGIV [9]): -4.55
- EC50 (log10 M) (SUDIPGXIX [37]): -4.66
- EC50 (log10 M) (HGGX2 [38]): -4.67
- EC50 (log10 M) (DIPGX37 [10]): -4.8
- EC50 (log10 M) (DIPGX9 [39]): -4.8
- EC50 (log10 M) (HABS [40]): -4.95
- EC50 (log10 M) (SUDIPGXVII [41]): -4.74
- EC50 (log10 M) (HGGX39 [12]): -4.79
- EC50 (log10 M) (SUDIPGXXI [13]): -4.81
- EC50 (log10 M) (iAstro [42]): -4.76
- EC50 (log10 M) (HGGX6 [14]): -5.19
- EC50 (log10 M) (DIPGX29 [15]): -4.75
- EC50 (log10 M) (HGGX42 [16]): -5.23
- area under dose-response curve (SUDIPGIV [17]): 12
- area under dose-response curve (SUDIPGVI): 6.26
- area under dose-response curve (SUDIPGXIII): 3.37
- area under dose-response curve (SUDIPGXIX [18]): 39.2
- area under dose-response curve (HGGX2 [19]): 23.3
- area under dose-response curve (DIPGX37 [20]): 30.6
- area under dose-response curve (DIPGX7 [21]): 11.3
- area under dose-response curve (DIPGX9 [22]): 29.4
- area under dose-response curve (HABS [23]): 32.4
- area under dose-response curve (SUDIPGXVII [24]): 15.2
- area under dose-response curve (HGGX39 [25]): 21.9
- area under dose-response curve (SUDIPGXXI [26]): 99.3
- area under dose-response curve (iAstro [27]): 18.2
- area under dose-response curve (HGGX6 [28]): 26.9
- area under dose-response curve (DIPGX29 [29]): 26.8
- area under dose-response curve (HGGX42 [30]): 30.8
